Tested on: 439559-082-T-J2-PDC spheroid viability
Experiment: Anticancer human tumor 439559-082-T-J2-PDC patient-derived colon adenocarcinoma cell line growth inhibition [POLQ]
Conditions: spheroids with HUVEC and MSC; for IC50: curve of first compound; for viability, T/C: stronger effect = lower value
Method in brief: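 PDC + HUVEC + MSC complex spheroids; POLQ inhibitors ± partner drugs; top conc. at/near clinical Cmax, else 10 microM (SN-38 1 microM), half-log dilutions; 37 degrees C, 5% CO2.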

[1] = second compound 0.0316 µM, first compound 0.0316 µM
[2] = second compound 0.0316 µM, first compound 0.1 µM
[3] = second compound 0.0316 µM, first compound 0.316 µM
[4] = second compound 0.0316 µM, first compound 1 µM
[5] = second compound 0.0316 µM, first compound 3.16 µM
[6] = second compound 0.0316 µM, first compound 10 µM
[7] = second compound 0.1 µM, first compound 0.0316 µM
[8] = second compound 0.1 µM, first compound 0.1 µM
[9] = second compound 0.1 µM, first compound 0.316 µM
[10] = second compound 0.1 µM, first compound 1 µM
[11] = second compound 0.1 µM, first compound 3.16 µM
[12] = second compound 0.1 µM, first compound 10 µM
[13] = second compound 0.316 µM, first compound 0.0316 µM
[14] = second compound 0.316 µM, first compound 0.1 µM
[15] = second compound 0.316 µM, first compound 0.316 µM
[16] = second compound 0.316 µM, first compound 1 µM
[17] = second compound 0.316 µM, first compound 3.16 µM
[18] = second compound 0.316 µM, first compound 10 µM
[19] = second compound 1 µM, first compound 0.0316 µM
[20] = second compound 1 µM, first compound 0.1 µM
[21] = second compound 1 µM, first compound 0.316 µM
[22] = second compound 1 µM, first compound 1 µM
[23] = second compound 1 µM, first compound 3.16 µM
[24] = second compound 1 µM, first compound 10 µM
[25] = second compound 3.16 µM, first compound 0.0316 µM
[26] = second compound 3.16 µM, first compound 0.1 µM
[27] = second compound 3.16 µM, first compound 0.316 µM
[28] = second compound 3.16 µM, first compound 1 µM
[29] = second compound 3.16 µM, first compound 3.16 µM
[30] = second compound 3.16 µM, first compound 10 µM
[31] = second compound 10 µM, first compound 0.0316 µM
[32] = second compound 10 µM, first compound 0.1 µM
[33] = second compound 10 µM, first compound 0.316 µM
[34] = second compound 10 µM, first compound 1 µM
[35] = second compound 10 µM, first compound 3.16 µM
[36] = second compound 10 µM, first compound 10 µM
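Also: spheroids exposed to compounds for seven days before readout.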
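For viability, T/C in this document: 100% = DMSO vehicle control viability.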

Compound: O=C(Nc1ccc(O)c(NS(=O)(=O)c2ccc(F)cc2)c1)c1ccc(-c2ccccc2)cc1 + Nc1ccc(C#CCN(C(=O)Cc2ncc(C(F)(F)F)cc2C(F)(F)F)c2ccc(F)cc2)nn1
- IC50 (second compound 0.0316 µM): > 10 µM
- IC50 (second compound 0.1 µM): > 10 µM
- IC50 (second compound 0.316 µM): > 10 µM
- IC50 (second compound 1 µM): > 10 µM
- IC50 (second compound 3.16 µM): > 10 µM
- IC50 (second compound 10 µM): > 10 µM
- viability, T/C [1]: 93%
- viability, T/C [2]: 97.5%
- viability, T/C [3]: 98.8%
- viability, T/C [4]: 93.3%
- viability, T/C [5]: 96.3%
- viability, T/C [6]: 103%
- viability, T/C [7]: 99%
- viability, T/C [8]: 103%
- viability, T/C [9]: 92.9%
- viability, T/C [10]: 97%
- viability, T/C [11]: 111%
- viability, T/C [12]: 106%
- viability, T/C [13]: 105%
- viability, T/C [14]: 104%
- viability, T/C [15]: 94.8%
- viability, T/C [16]: 96.9%
- viability, T/C [17]: 87.9%
- viability, T/C [18]: 92.5%
- viability, T/C [19]: 93.5%
- viability, T/C [20]: 103%
- viability, T/C [21]: 89.7%
- viability, T/C [22]: 90.7%
- viability, T/C [23]: 99.6%
- viability, T/C [24]: 96.8%
- viability, T/C [25]: 89.6%
- viability, T/C [26]: 107%
- viability, T/C [27]: 100%
- viability, T/C [28]: 99.6%
- viability, T/C [29]: 94.2%
- viability, T/C [30]: 91.3%
- viability, T/C [31]: 114%
- viability, T/C [32]: 101%
- viability, T/C [33]: 102%
- viability, T/C [34]: 91.5%
- viability, T/C [35]: 113%
- viability, T/C [36]: 101%

Compound: CC(C)n1c(=O)n(C)c2cnc3cc(F)c(-c4ccc(OCCCN5CCCCC5)nc4)cc3c21 + COC1C(OC(N)=O)C(O)C(Oc2ccc3c(O)c(NC(=O)c4ccc(O)c(CC=C(C)C)c4)c(=O)oc3c2C)OC1(C)C
- IC50 (second compound 0.0316 µM): > 10 µM
- IC50 (second compound 0.1 µM): > 10 µM
- IC50 (second compound 0.316 µM): > 10 µM
- IC50 (second compound 1 µM): > 10 µM
- IC50 (second compound 3.16 µM): > 10 µM
- IC50 (second compound 10 µM): > 10 µM
- viability, T/C [1]: 97.8%
- viability, T/C [2]: 102%
- viability, T/C [3]: 109%
- viability, T/C [4]: 116%
- viability, T/C [5]: 113%
- viability, T/C [6]: 102%
- viability, T/C [7]: 111%
- viability, T/C [8]: 109%
- viability, T/C [9]: 110%
- viability, T/C [10]: 119%
- viability, T/C [11]: 102%
- viability, T/C [12]: 99.4%
- viability, T/C [13]: 119%
- viability, T/C [14]: 109%
- viability, T/C [15]: 109%
- viability, T/C [16]: 112%
- viability, T/C [17]: 107%
- viability, T/C [18]: 91.2%
- viability, T/C [19]: 110%
- viability, T/C [20]: 111%
- viability, T/C [21]: 111%
- viability, T/C [22]: 109%
- viability, T/C [23]: 110%
- viability, T/C [24]: 95%
- viability, T/C [25]: 105%
- viability, T/C [26]: 107%
- viability, T/C [27]: 106%
- viability, T/C [28]: 112%
- viability, T/C [29]: 111%
- viability, T/C [30]: 97.6%
- viability, T/C [31]: 103%
- viability, T/C [32]: 96.9%
- viability, T/C [33]: 106%
- viability, T/C [34]: 106%
- viability, T/C [35]: 113%
- viability, T/C [36]: 102%

Compound: C=CCn1c(=O)c2cnc(Nc3ccc(N4CCN(C)CC4)cc3)nc2n1-c1cccc(C(C)(C)O)n1 + Nc1ccc(C#CCN(C(=O)Cc2ncc(C(F)(F)F)cc2C(F)(F)F)c2ccc(F)cc2)nn1
- IC50 (second compound 0.0316 µM): > 1 µM
- IC50 (second compound 0.1 µM): > 1 µM
- IC50 (second compound 0.316 µM): > 1 µM
- IC50 (second compound 1 µM): > 1 µM
- IC50 (second compound 3.16 µM): > 1 µM
- IC50 (second compound 10 µM): > 1 µM
- viability, T/C (second compound 0.0316 µM, first compound 0.00316 µM): 111%
- viability, T/C (second compound 0.0316 µM, first compound 0.01 µM): 109%
- viability, T/C [1]: 109%
- viability, T/C [2]: 105%
- viability, T/C [3]: 97.5%
- viability, T/C [4]: 84.7%
- viability, T/C (second compound 0.1 µM, first compound 0.00316 µM): 108%
- viability, T/C (second compound 0.1 µM, first compound 0.01 µM): 94.4%
- viability, T/C [7]: 100%
- viability, T/C [8]: 95.5%
- viability, T/C [9]: 97.9%
- viability, T/C [10]: 78.6%
- viability, T/C (second compound 0.316 µM, first compound 0.00316 µM): 108%
- viability, T/C (second compound 0.316 µM, first compound 0.01 µM): 115%
- viability, T/C [13]: 97.3%
- viability, T/C [14]: 99.1%
- viability, T/C [15]: 97.5%
- viability, T/C [16]: 84%
- viability, T/C (second compound 1 µM, first compound 0.00316 µM): 105%
- viability, T/C (second compound 1 µM, first compound 0.01 µM): 102%
- viability, T/C [19]: 98.4%
- viability, T/C [20]: 101%
- viability, T/C [21]: 103%
- viability, T/C [22]: 78.7%
- viability, T/C (second compound 3.16 µM, first compound 0.00316 µM): 99.6%
- viability, T/C (second compound 3.16 µM, first compound 0.01 µM): 107%
- viability, T/C [25]: 98.8%
- viability, T/C [26]: 99.4%
- viability, T/C [27]: 89.5%
- viability, T/C [28]: 79.3%
- viability, T/C (second compound 10 µM, first compound 0.00316 µM): 105%
- viability, T/C (second compound 10 µM, first compound 0.01 µM): 109%
- viability, T/C [31]: 103%
- viability, T/C [32]: 105%
- viability, T/C [33]: 99.9%
- viability, T/C [34]: 71.2%

Compound: CNCc1ccc(-c2[nH]c3cc(F)cc4c3c2CCNC4=O)cc1 + COC1C(OC(N)=O)C(O)C(Oc2ccc3c(O)c(NC(=O)c4ccc(O)c(CC=C(C)C)c4)c(=O)oc3c2C)OC1(C)C
- IC50 (second compound 0.0316 µM): > 10 µM
- IC50 (second compound 0.1 µM): > 10 µM
- IC50 (second compound 0.316 µM): > 10 µM
- IC50 (second compound 1 µM): > 10 µM
- IC50 (second compound 3.16 µM): > 10 µM
- IC50 (second compound 10 µM): > 10 µM
- viability, T/C [1]: 103%
- viability, T/C [2]: 98.7%
- viability, T/C [3]: 99.4%
- viability, T/C [4]: 101%
- viability, T/C [5]: 106%
- viability, T/C [6]: 102%
- viability, T/C [7]: 101%
- viability, T/C [8]: 107%
- viability, T/C [9]: 91.7%
- viability, T/C [10]: 99.7%
- viability, T/C [11]: 105%
- viability, T/C [12]: 108%
- viability, T/C [13]: 104%
- viability, T/C [14]: 96%
- viability, T/C [15]: 98.3%
- viability, T/C [16]: 108%
- viability, T/C [17]: 110%
- viability, T/C [18]: 105%
- viability, T/C [19]: 108%
- viability, T/C [20]: 103%
- viability, T/C [21]: 106%
- viability, T/C [22]: 98.1%
- viability, T/C [23]: 111%
- viability, T/C [24]: 108%
- viability, T/C [25]: 108%
- viability, T/C [26]: 103%
- viability, T/C [27]: 97.4%
- viability, T/C [28]: 95.8%
- viability, T/C [29]: 114%
- viability, T/C [30]: 105%
- viability, T/C [31]: 99.5%
- viability, T/C [32]: 93.7%
- viability, T/C [33]: 95.4%
- viability, T/C [34]: 104%
- viability, T/C [35]: 115%
- viability, T/C [36]: 98.4%

Compound: CNCc1ccc(-c2[nH]c3cc(F)cc4c3c2CCNC4=O)cc1 + Cc1cccc(N(C)C(=O)C2C(O)CCN2c2nc(C)cc(C(F)(F)F)c2C#N)c1
- IC50 (second compound 0.0316 µM): > 10 µM
- IC50 (second compound 0.1 µM): > 10 µM
- IC50 (second compound 0.316 µM): > 10 µM
- IC50 (second compound 1 µM): > 10 µM
- IC50 (second compound 3.16 µM): > 10 µM
- IC50 (second compound 10 µM): > 10 µM
- viability, T/C [1]: 94.8%
- viability, T/C [2]: 108%
- viability, T/C [3]: 99.3%
- viability, T/C [4]: 96.5%
- viability, T/C [5]: 102%
- viability, T/C [6]: 110%
- viability, T/C [7]: 103%
- viability, T/C [8]: 105%
- viability, T/C [9]: 108%
- viability, T/C [10]: 95.8%
- viability, T/C [11]: 101%
- viability, T/C [12]: 96.8%
- viability, T/C [13]: 105%
- viability, T/C [14]: 105%
- viability, T/C [15]: 98.3%
- viability, T/C [16]: 114%
- viability, T/C [17]: 102%
- viability, T/C [18]: 102%
- viability, T/C [19]: 99.3%
- viability, T/C [20]: 92.6%
- viability, T/C [21]: 92.2%
- viability, T/C [22]: 106%
- viability, T/C [23]: 95.7%
- viability, T/C [24]: 106%
- viability, T/C [25]: 105%
- viability, T/C [26]: 98.3%
- viability, T/C [27]: 96.9%
- viability, T/C [28]: 99.1%
- viability, T/C [29]: 102%
- viability, T/C [30]: 99.5%
- viability, T/C [31]: 88.4%
- viability, T/C [32]: 92.8%
- viability, T/C [33]: 93.5%
- viability, T/C [34]: 91.1%
- viability, T/C [35]: 97.2%
- viability, T/C [36]: 100%

Source: PubChem BioAssay AID1963841 (Molecular Pharmacology Branch, DTP, NCI, 2024)
